pKi: −log10 of the molar value.
Legend:
Carbonic anhydrase 12 = Carbonic anhydrase 12 (Homo sapiens, UniProt O43570); test: Inhibition of recombinant human carbonic anhydrase12 preincubated for 10 mins followed by CO2 solution addition by phenol red dye based stopped flow CO2 hydration assay
Carbonic anhydrase 1 = Carbonic anhydrase 1 (Homo sapiens, UniProt P00915); test: Inhibition of recombinant human carbonic anhydrase1 preincubated for 10 mins followed by CO2 solution addition by phenol red dye based stopped flow CO2 hydration assay
Sequence of Carbonic anhydrase 1 (P00915 whole entry): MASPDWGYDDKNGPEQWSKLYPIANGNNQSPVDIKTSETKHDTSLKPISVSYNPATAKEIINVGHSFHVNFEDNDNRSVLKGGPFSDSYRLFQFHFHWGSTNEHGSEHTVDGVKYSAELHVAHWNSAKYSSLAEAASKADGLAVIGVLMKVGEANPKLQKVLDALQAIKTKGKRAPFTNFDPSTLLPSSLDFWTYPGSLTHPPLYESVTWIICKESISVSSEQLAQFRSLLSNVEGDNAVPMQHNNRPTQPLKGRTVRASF

Carbonic anhydrase 2 = Carbonic anhydrase 2 (Homo sapiens, UniProt P00918); test: Inhibition of recombinant human carbonic anhydrase2 preincubated for 10 mins followed by CO2 solution addition by phenol red dye based stopped flow CO2 hydration assay
Carbonic anhydrase 9 = Carbonic anhydrase 9 (Homo sapiens, UniProt Q16790); test: Inhibition of recombinant human carbonic anhydrase9 preincubated for 10 mins followed by CO2 solution addition by phenol red dye based stopped flow CO2 hydration assay

Sequence of Carbonic anhydrase 12 (O43570 whole entry): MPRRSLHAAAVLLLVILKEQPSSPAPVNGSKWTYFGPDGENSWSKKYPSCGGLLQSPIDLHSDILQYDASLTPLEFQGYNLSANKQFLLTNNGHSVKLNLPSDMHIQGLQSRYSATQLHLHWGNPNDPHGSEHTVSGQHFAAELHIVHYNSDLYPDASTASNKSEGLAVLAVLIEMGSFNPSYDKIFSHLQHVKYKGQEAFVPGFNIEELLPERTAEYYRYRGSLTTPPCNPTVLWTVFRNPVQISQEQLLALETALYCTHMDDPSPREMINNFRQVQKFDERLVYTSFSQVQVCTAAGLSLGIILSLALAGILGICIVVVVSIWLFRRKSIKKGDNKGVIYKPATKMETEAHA

Q: How did the pKi (Carbonic anhydrase 12) turn out when `COc1ccc(-c2nc(N3CCOCC3)sc2/C=C/C(=O)Nc2ccc(Br)cc2)cc1` was run?
A: Its pKi is < 4.00.

Q: What about the pKi (Carbonic anhydrase 1) of the same compound?
A: Its pKi is < 4.00.

Q: What about the pKi (Carbonic anhydrase 2) of the same compound?
A: Its pKi is < 4.00.

Q: And the pKi (Carbonic anhydrase 9)?
A: Its pKi is < 4.00.

Q: `COc1ccc(NC(=O)/C=C/c2sc(N3CCOCC3)nc2-c2ccc(OC)cc2)cc1` was tested. Which pKi (Carbonic anhydrase 12) did it give?
A: The pKi was < 4.00.

Q: What about the pKi (Carbonic anhydrase 1) of the same compound?
A: The pKi was < 4.00.

Q: What about the pKi (Carbonic anhydrase 2) of the same compound?
A: The pKi was < 4.00.

Q: And the pKi (Carbonic anhydrase 9)?
A: The pKi was < 4.00.

Q: With `COc1ccc(NC(=O)/C=C/c2sc(N3CCOCC3)nc2-c2ccccc2)cc1` as the compound, how does the pKi (Carbonic anhydrase 12) read?
A: Its pKi is < 4.00.

Q: What about the pKi (Carbonic anhydrase 1) of the same compound?
A: Its pKi is < 4.00.

Q: What about the pKi (Carbonic anhydrase 2) of the same compound?
A: The pKi was < 4.00.

Q: And the pKi (Carbonic anhydrase 9)?
A: Its pKi is < 4.00.

Q: What does the source list for `COc1ccc(-c2nc(N3CCOCC3)sc2/C=C/C(=O)Nc2ccccc2N)cc1`?
A: pKi (Carbonic anhydrase 12): < 4.00; pKi (Carbonic anhydrase 1): < 4.00; pKi (Carbonic anhydrase 2): < 4.00; pKi (Carbonic anhydrase 9): < 4.00

Q: How did the pKi (Carbonic anhydrase 12) turn out when `O=C(/C=C/c1sc(N2CCOCC2)nc1-c1ccc(Cl)cc1)Nc1ccc(Br)cc1` was run?
A: Its pKi is < 4.00.

Q: And the pKi (Carbonic anhydrase 1)?
A: Its pKi is < 4.00.

Q: And the pKi (Carbonic anhydrase 2)?
A: Its pKi is 4.17.

Q: And the pKi (Carbonic anhydrase 9)?
A: The pKi was 4.02.

Q: Which results are given for `Nc1ccccc1NC(=O)/C=C/c1sc(N2CCOCC2)nc1-c1ccc([N+](=O)[O-])cc1`?
A: pKi (Carbonic anhydrase 12): < 4.00; pKi (Carbonic anhydrase 1): < 4.00; pKi (Carbonic anhydrase 2): 4.11; pKi (Carbonic anhydrase 9): 4.01

Q: With `COc1ccc(NC(=O)/C=C/c2sc(N3CCOCC3)nc2-c2ccc([N+](=O)[O-])cc2)cc1OC` as the compound, how does the pKi (Carbonic anhydrase 12) read?
A: The pKi was < 4.00.

Q: And the pKi (Carbonic anhydrase 1)?
A: The pKi was < 4.00.

Q: And the pKi (Carbonic anhydrase 2)?
A: The pKi was < 4.00.

Q: And the pKi (Carbonic anhydrase 9)?
A: The pKi was < 4.00.

Q: `Nc1ccccc1NC(=O)/C=C/c1sc(N2CCOCC2)nc1-c1ccc(Cl)cc1` was tested. Which pKi (Carbonic anhydrase 12) did it give?
A: The pKi was < 4.00.

Q: What about the pKi (Carbonic anhydrase 1) of the same compound?
A: Its pKi is < 4.00.

Q: And the pKi (Carbonic anhydrase 2)?
A: Its pKi is < 4.00.

Q: What about the pKi (Carbonic anhydrase 9) of the same compound?
A: The pKi was < 4.00.

Q: What does the source list for `COc1ccc(-c2nc(N3CCOCC3)sc2/C=C/C(=O)Nc2cc(OC)c(OC)c(OC)c2)cc1`?
A: pKi (Carbonic anhydrase 12): < 4.00; pKi (Carbonic anhydrase 1): < 4.00; pKi (Carbonic anhydrase 2): < 4.00; pKi (Carbonic anhydrase 9): < 4.00

Q: `COc1cc(NC(=O)/C=C/c2sc(N3CCOCC3)nc2-c2ccc(Cl)cc2)cc(OC)c1OC` was tested. Which pKi (Carbonic anhydrase 12) did it give?
A: The pKi was < 4.00.

Q: And the pKi (Carbonic anhydrase 1)?
A: Its pKi is < 4.00.

Q: And the pKi (Carbonic anhydrase 2)?
A: The pKi was < 4.00.

Q: What about the pKi (Carbonic anhydrase 9) of the same compound?
A: The pKi was < 4.00.

Q: `COc1cc(NC(=O)/C=C/c2sc(N3CCOCC3)nc2-c2ccccc2)cc(OC)c1OC` was tested. Which pKi (Carbonic anhydrase 12) did it give?
A: Its pKi is < 4.00.

Q: And the pKi (Carbonic anhydrase 1)?
A: The pKi was < 4.00.

Q: And the pKi (Carbonic anhydrase 2)?
A: Its pKi is < 4.00.

Q: And the pKi (Carbonic anhydrase 9)?
A: Its pKi is < 4.00.

Q: With `COc1ccc(NC(=O)/C=C/c2sc(N3CCOCC3)nc2-c2ccc(Cl)cc2)cc1` as the compound, how does the pKi (Carbonic anhydrase 12) read?
A: Its pKi is 5.12.

Q: And the pKi (Carbonic anhydrase 1)?
A: Its pKi is < 4.00.

Q: And the pKi (Carbonic anhydrase 2)?
A: Its pKi is 4.30.

Q: And the pKi (Carbonic anhydrase 9)?
A: The pKi was 4.02.

Q: With `COc1ccc(-c2nc(N3CCOCC3)sc2/C=C/C(=O)Nc2ccc(OC)c(OC)c2)cc1` as the compound, how does the pKi (Carbonic anhydrase 12) read?
A: Its pKi is < 4.00.

Q: And the pKi (Carbonic anhydrase 1)?
A: Its pKi is < 4.00.

Q: What about the pKi (Carbonic anhydrase 2) of the same compound?
A: Its pKi is < 4.00.

Q: What about the pKi (Carbonic anhydrase 9) of the same compound?
A: Its pKi is < 4.00.

Q: How did the pKi (Carbonic anhydrase 12) turn out when `O=C(/C=C/c1sc(N2CCOCC2)nc1-c1ccccc1)Nc1ccc(Br)cc1` was run?
A: The pKi was < 4.00.

Q: And the pKi (Carbonic anhydrase 1)?
A: The pKi was < 4.00.

Q: And the pKi (Carbonic anhydrase 2)?
A: Its pKi is < 4.00.

Q: What about the pKi (Carbonic anhydrase 9) of the same compound?
A: Its pKi is < 4.00.

Q: What does the source list for `COc1ccc(NC(=O)/C=C/c2sc(N3CCOCC3)nc2-c2ccccc2)cc1OC`?
A: pKi (Carbonic anhydrase 12): < 4.00; pKi (Carbonic anhydrase 1): < 4.00; pKi (Carbonic anhydrase 2): < 4.00; pKi (Carbonic anhydrase 9): < 4.00

Q: How did the pKi (Carbonic anhydrase 12) turn out when `COc1ccc(NC(=O)/C=C/c2sc(N3CCOCC3)nc2-c2ccc(Cl)cc2)cc1OC` was run?
A: Its pKi is < 4.00.

Q: What about the pKi (Carbonic anhydrase 1) of the same compound?
A: Its pKi is < 4.00.

Q: What about the pKi (Carbonic anhydrase 2) of the same compound?
A: Its pKi is < 4.00.

Q: And the pKi (Carbonic anhydrase 9)?
A: Its pKi is < 4.00.

Q: `O=C(/C=C/c1sc(N2CCOCC2)nc1-c1ccc([N+](=O)[O-])cc1)Nc1ccc(Br)cc1` was tested. Which pKi (Carbonic anhydrase 12) did it give?
A: The pKi was 5.06.

Q: And the pKi (Carbonic anhydrase 1)?
A: Its pKi is < 4.00.

Q: What about the pKi (Carbonic anhydrase 2) of the same compound?
A: The pKi was 5.03.

Q: And the pKi (Carbonic anhydrase 9)?
A: Its pKi is 4.26.

Q: `COc1ccc(NC(=O)/C=C/c2sc(N3CCOCC3)nc2-c2ccc([N+](=O)[O-])cc2)cc1` was tested. Which pKi (Carbonic anhydrase 12) did it give?
A: Its pKi is 5.34.

Q: What about the pKi (Carbonic anhydrase 1) of the same compound?
A: Its pKi is < 4.00.

Q: What about the pKi (Carbonic anhydrase 2) of the same compound?
A: The pKi was 4.41.

Q: What about the pKi (Carbonic anhydrase 9) of the same compound?
A: Its pKi is 4.26.

Q: How did the pKi (Carbonic anhydrase 12) turn out when `Nc1ccccc1NC(=O)/C=C/c1sc(N2CCOCC2)nc1-c1ccccc1` was run?
A: The pKi was < 4.00.

Q: What about the pKi (Carbonic anhydrase 1) of the same compound?
A: The pKi was < 4.00.

Q: What about the pKi (Carbonic anhydrase 2) of the same compound?
A: Its pKi is < 4.00.

Q: And the pKi (Carbonic anhydrase 9)?
A: The pKi was < 4.00.
